The source made the active and inactive calls. The calls are words filed in the database; no cut-off is given here.
Columns and labels:
[1] = system: HCT-116; experiment: Antiproliferative activity against human HCT-116 cells assessed as reduction in cell viability incubated for 72 hrs by WST-8 assay; format: functional, cell-based; conditions: HCT-116, 72 h
[2] = system: SGC-7901; experiment: Antiproliferative activity against human SGC-7901 cells assessed as reduction in cell viability incubated for 72 hrs by WST-8 assay; format: functional, cell-based; conditions: SGC-7901, 72 h
[3] = system: A549; experiment: Antiproliferative activity against human A549 cells assessed as reduction in cell viability incubated for 72 hrs by WST-8 assay; format: functional, cell-based; conditions: A549, 72 h
[4] = biological target: Histone deacetylase 1 (Homo sapiens, UniProt Q13547); experiment: Inhibition of HDAC1 (unknown origin) using Boc-Lys(Ac)-AMC as substrate incubated for 60 mins by fluorescence plate reader assay
Chain of Histone deacetylase 1 (Q13547 whole entry): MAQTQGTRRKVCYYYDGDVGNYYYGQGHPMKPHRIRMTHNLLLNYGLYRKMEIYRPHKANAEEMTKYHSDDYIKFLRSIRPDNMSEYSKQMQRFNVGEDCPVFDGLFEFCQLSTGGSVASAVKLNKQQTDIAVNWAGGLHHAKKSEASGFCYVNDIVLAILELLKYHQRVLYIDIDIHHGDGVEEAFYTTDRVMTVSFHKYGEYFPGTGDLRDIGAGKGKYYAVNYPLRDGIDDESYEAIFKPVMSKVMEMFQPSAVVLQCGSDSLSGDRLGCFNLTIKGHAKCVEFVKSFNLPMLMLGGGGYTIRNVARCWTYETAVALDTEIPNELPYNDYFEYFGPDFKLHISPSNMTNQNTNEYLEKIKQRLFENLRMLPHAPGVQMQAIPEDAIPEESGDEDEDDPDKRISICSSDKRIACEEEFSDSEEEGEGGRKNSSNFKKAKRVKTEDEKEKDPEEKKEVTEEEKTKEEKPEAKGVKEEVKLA

[5] = biological target: T1, Protein deacetylase HDAC6 (Homo sapiens, UniProt Q9UBN7); experiment: Inhibition of HDAC6 (unknown origin) using Boc-Lys(Ac)-AMC as substrate incubated for 60 mins by fluorescence plate reader assay
T1 sequence (Q9UBN7 whole entry): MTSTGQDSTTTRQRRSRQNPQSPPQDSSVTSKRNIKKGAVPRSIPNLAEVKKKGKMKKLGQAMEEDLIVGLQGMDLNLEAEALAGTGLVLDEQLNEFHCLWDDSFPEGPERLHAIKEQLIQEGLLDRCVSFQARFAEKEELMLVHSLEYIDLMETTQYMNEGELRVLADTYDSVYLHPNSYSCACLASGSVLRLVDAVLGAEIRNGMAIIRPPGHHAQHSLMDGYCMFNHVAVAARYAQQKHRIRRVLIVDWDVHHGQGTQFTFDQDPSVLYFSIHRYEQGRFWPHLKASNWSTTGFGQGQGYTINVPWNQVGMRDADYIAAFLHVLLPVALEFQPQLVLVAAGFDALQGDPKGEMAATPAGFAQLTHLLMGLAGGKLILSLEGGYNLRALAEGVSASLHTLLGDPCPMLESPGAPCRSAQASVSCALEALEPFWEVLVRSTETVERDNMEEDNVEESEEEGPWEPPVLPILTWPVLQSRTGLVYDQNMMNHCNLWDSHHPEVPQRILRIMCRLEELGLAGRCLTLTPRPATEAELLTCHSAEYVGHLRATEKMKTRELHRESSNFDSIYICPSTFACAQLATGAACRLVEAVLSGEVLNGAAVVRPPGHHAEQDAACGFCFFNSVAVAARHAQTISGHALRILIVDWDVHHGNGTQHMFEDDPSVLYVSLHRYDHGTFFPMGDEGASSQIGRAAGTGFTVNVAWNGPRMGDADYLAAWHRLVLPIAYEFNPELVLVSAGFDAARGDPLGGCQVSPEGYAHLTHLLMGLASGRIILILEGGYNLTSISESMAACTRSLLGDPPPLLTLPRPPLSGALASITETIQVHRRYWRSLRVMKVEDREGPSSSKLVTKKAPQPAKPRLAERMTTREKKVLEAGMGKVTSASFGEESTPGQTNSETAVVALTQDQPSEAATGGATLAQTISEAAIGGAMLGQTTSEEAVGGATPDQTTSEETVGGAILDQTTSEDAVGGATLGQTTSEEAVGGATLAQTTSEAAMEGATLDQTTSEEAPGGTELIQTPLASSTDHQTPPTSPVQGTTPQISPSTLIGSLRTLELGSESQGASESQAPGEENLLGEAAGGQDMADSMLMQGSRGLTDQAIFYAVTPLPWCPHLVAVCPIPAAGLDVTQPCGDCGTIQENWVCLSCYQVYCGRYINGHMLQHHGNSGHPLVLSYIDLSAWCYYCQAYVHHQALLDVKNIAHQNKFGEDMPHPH

[6] = system: HL-60; experiment: Antiproliferative activity against human HL-60 cells assessed as reduction in cell viability incubated for 72 hrs by WST-8 assay; format: functional, cell-based; conditions: HL-60, 72 h
[7] = system: MDA-MB-231; experiment: Antiproliferative activity against human MDA-MB-231 cells assessed as reduction in cell viability incubated for 72 hrs by WST-8 assay; format: functional, cell-based; conditions: MDA-MB-231, 72 h
[8] = system: HCT-116; experiment: Induction of cell cycle arrest in human HCT-116 cells assessed as decrease in accumulation of cells at S phase at 1 uM incubated for 24 hrs by flow cytometry analysis; format: functional, cell-based
[9] = system: HCT-116; experiment: Induction of apoptosis in human HCT-116 cells assessed as early apoptotic cells at 1 uM incubated for 48 hrs by Annexin V-FITC/propidium iodide staining-based flow cytometric analysis (reference value: 1.73 %); format: functional
[10] = system: HCT-116; experiment: Induction of cell cycle arrest in human HCT-116 cells assessed as increase in accumulation of cells at G2/M phase at 1 uM incubated for 24 hrs by flow cytometry analysis; format: functional, cell-based
[11] = system: HCT-116; experiment: Induction of apoptosis in human HCT-116 cells assessed as late apoptotic cells at 1 uM incubated for 48 hrs by Annexin V-FITC/propidium iodide staining-based flow cytometric analysis (reference value: 5.80 %); format: functional
[12] = biological target: T2, Histone deacetylase (Homo sapiens) (UniProt Q13547+O15379+Q9UBN7+Q92769+Q9UQL6+Q8WUI4+Q9BY41+Q96DB2+P56524+Q9UKV0+Q969S8); experiment: Inhibition of HDAC in human HCT-116 cells assessed as upregulation of acetylated alpha-tubulin level 0.1 to 1 uM incubated for 48 hrs by Western blot analysis; format: cell-based; conditions: dose 0.1-1 µM, DDE = dose-dependent effect
[13] = system: HCT-116; experiment: Antitumor activity against human HCT-116 cells xenografted in BALB/c mouse assessed as inhibition of tumor growth at 40 mg/kg, ip adminstered once daily measured every three days for 15 days by vernier caliper method relative to control; format: functional; design: scale not given: the % may be the effect or the level left; conditions: time 15 day
[14] = system: Mus musculus; experiment: In vivo inhibition of HDAC in HCT-116 cells xenografted in BALB/c mouse assessed as upregulation of alpha tubulin expression at 20 to 40 mg/kg, ip for 15 days by Western blot analysis; format: functional, organism-based; conditions: dose 20-40 mg/kg, time 15.0 day, DDE = dose-dependent effect
[15] = system: HCT-116; experiment: Induction of apoptosis in human HCT-116 cells assessed as late apoptotic cells at 0.1 uM incubated for 48 hrs by Annexin V-FITC/propidium iodide staining-based flow cytometric analysis (reference value: 5.80 %); format: functional
[16] = system: HCT-116; experiment: Induction of apoptosis in human HCT-116 cells assessed as increase in cleaved PARP level at 0.1 to 1 uM incubated for 48 hrs by Western blot analysis; format: functional, cell-based; conditions: dose 0.1-1 µM
[17] = Toxicity in BALB/c mouse assessed as body weight loss at 20 to 40 mg/kg, ip adminstered once daily for 15 days; format: organism-based; conditions: in vivo, 360 h, dose 20-40 mg/kg, time 15 day
[18] = system: Mus musculus; experiment: In vivo inhibition of HDAC in BALB/c mouse xenografted with HCT-116 cells assessed as upregulation of acetylated H3 expression at 20 to 40 mg/kg, ip for 15 days by Western blot analysis; format: functional, organism-based; conditions: dose 20-40 mg/kg, time 15.0 day, DDE = dose-dependent effect
[19] = system: HCT-116; experiment: Induction of apoptosis in human HCT-116 cells assessed as early apoptotic cells at 0.1 uM incubated for 48 hrs by Annexin V-FITC/propidium iodide staining-based flow cytometric analysis (reference value: 1.73 %); format: functional
[20] = system: HCT-116; experiment: Inhibition of colony formation in human HCT-116 cells assessed as reduction in number of colonies at 3 nM drug medium changed every three days for 2 weeks by crystal violet staining based analysis; format: functional, cell-based
[21] = biological target: T2, Histone deacetylase (Homo sapiens); experiment: Inhibition of HDAC in human HCT-116 cells assessed as upregulation of acetylated H3 level at 0.1 to 1 uM incubated for 48 hrs by Western blot analysis; format: cell-based; conditions: dose 0.1-1 µM, DDE = dose-dependent effect
[22] = system: HCT-116; experiment: Inhibition of colony formation in human HCT-116 cells at 3 to 10 nM drug medium changed every three days for 2 weeks by crystal violet staining based analysis; format: functional, cell-based; conditions: dose 3-10 nM, DDE = dose-dependent effect
[23] = system: HCT-116; experiment: Induction of cell cycle arrest in human HCT-116 cells assessed as accumulation of cells at G2/M phase at 0.1 to 1 uM incubated for 24 hrs by flow cytometry analysis; format: functional, cell-based; conditions: dose 0.1-1 µM, DDE = dose-dependent effect
[24] = system: HCT-116; experiment: Antitumor activity against human HCT-116 cells xenografted in BALB/c mouse assessed as inhibition of tumor growth at 20 mg/kg, ip adminstered once daily measured every three days for 15 days by vernier caliper method relative to control; format: functional; design: scale not given: the % may be the effect or the level left; conditions: time 15 day
[25] = system: HCT-116; experiment: Inhibition of colony formation in human HCT-116 cells assessed as blockage of anchor growth at 10 nM drug medium changed every three days for 2 weeks by crystal violet staining based analysis; format: functional; conditions: HCT-116, 336 h
[26] = system: HCT-116; experiment: Inhibition of colony formation in human HCT-116 cells assessed as reduction in size of colonies at 3 nM drug medium changed every three days for 2 weeks by crystal violet staining based analysis; format: functional, cell-based
[27] = Toxicity in BALB/c mouse assessed as drug tolerability at 20 to 40 mg/kg, ip adminstered once daily for 15 days; format: organism-based; conditions: in vivo, 360 h, dose 20-40 mg/kg, time 15 day
[28] = system: HCT-116; experiment: Induction of apoptosis in human HCT-116 cells at 0.1 to 1 uM incubated for 48 hrs by Annexin V-FITC/propidium iodide staining-based flow cytometric analysis; format: functional, cell-based; conditions: dose 0.1-1 µM, DDE = dose-dependent effect

| Structure (SMILES) | IC50 [1] [nM] | IC50 [2] [nM] | IC50 [3] [nM] | IC50 [4] [nM] | IC50 [5] [nM] | IC50 [6] [nM] | IC50 [7] [nM] | also measured |
| --- | --- | --- | --- | --- | --- | --- | --- | --- |
| O=C(CCCCCCn1c(C(=O)NC2C3CC4CC(C3)CC2C4)cc2ccccc21)NO (centres undefined) | 13800 | 6800 | 60800 | 2.1 | 2.43 | 5740 | 42600 |  |
| O=C(CCCCCn1cc(C(=O)NC2C3CC4CC(C3)CC2C4)c2ccccc21)NO (centres undefined) |  |  |  | 67.4 | 10.4 |  |  |  |
| O=C(CCCCCCn1cc(C(=O)NC2CCCCC2)c2ccccc21)NO | 15000 | 25400 | > 100000 | 1.56 | 2.32 | 8500 | > 100000 |  |
| O=C(CCCCCCn1c(C(=O)NC2C3CC4CC(C3)CC2C4)cc2ccc(Br)cc21)NO (centres undefined) | 630 | 180 | 920 | 3.16 | 4.64 | 510 | 1770 |  |
| O=C(CCCCCCn1cc(C(=O)NC2C3CC4CC(C3)CC2C4)c2ccccc21)NO (centres undefined) |  |  |  | 2.04 | 1.7 |  |  |  |
| O=C(CCCCCCn1cc(C(=O)N2CCOCC2)c2ccccc21)NO |  |  |  | 8.95 | 7.59 |  |  |  |
| CC(=O)SCCCCCCCn1cc(C(=O)NC2C3CC4CC(C3)CC2C4)c2ccccc21 (centres undefined) |  |  |  | > 1000 | > 1000 |  |  |  |
| O=C(NO)c1ccc(Cn2cc(C(=O)NC3C4CC5CC(C4)CC3C5)c3ccccc32)cc1 (centres undefined) |  |  |  | 115 | 5.29 |  |  |  |
| O=C(CCCCCCC(=O)Nc1ccccc1)NO [VORINOSTAT] | 3590 |  |  |  |  |  |  | Activity [8]: Active; Activity [9]: 3.2%; Activity [10]: Active; Activity [11]: 36.2% |
| COc1ccc2c(c1)cc(C(=O)NC1C3CC4CC(C3)CC1C4)n2CCCCCCC(=O)NO (centres undefined) | 140 | 40 | 960 | 1.16 | 2.3 | 20 | 460 | Activity [12]: Dde; Activity [13]: 71.79%; Activity [14]: Dde; Activity [15]: 29.9%; Activity [16]: Active; Activity [17]: Non-Toxic; Activity [18]: Dde; Activity [19]: 2.59%; inhibition [20]: Active; Activity [9]: 3.34%; Activity [21]: Dde; inhibition [22]: Dde; Activity [23]: Dde; Activity [24]: 44.54%; inhibition at 0.01 µM [25]: 100%; inhibition [26]: Active; Activity [11]: 48.8%; Activity [27]: Non-Toxic; Activity [28]: Dde |
| CC(=O)SCCCCCCn1cc(C(=O)NC2C3CC4CC(C3)CC2C4)c2ccccc21 (centres undefined) |  |  |  | > 1000 | > 1000 |  |  |  |
